Measurements: PMC11898701, “Evaluating Therapeutic Efficacy of the Vascular Disrupting Agent OXi8007 Against Kidney Cancer in Mice” (Cancers, 2025)

Columns and labels:
[1] = tested on: orthotopic Renca-luc tumors; experiment: Long-term therapy with OXi8007 and/or cabozantinib; type: in vivo, mouse
Method: OXi8007, synthesized by the Pinney Laboratory using published procedures, was dissolved in saline, verified to be in the pH range 7.3 to 7.5, and dosed at 250 mg/kg (IP). Cabozantinib (in PEG400 and ultrapure H2O (Milli-Q)) was administered at 3 mg/kg by oral gavage. Anti-PD-1 (10 mg/kg, Bio X Cell, Lebanon, NH, USA) and anti-CTLA-4 (5 mg/kg, Bio X Cell, Lebanon, NH) solutions were administered (IP) on the day before OXi8007 […].
We evaluated the longitudinal effects of OXi8007 alone and in combination with drugs currently favored for treating kidney cancer. For Renca-luc tumor-bearing mice, BLI was performed at least once a week to estimate tumor size, and mice were weighed weekly to adjust the dose as needed. Two treatment cohorts examined syngeneic orthotopic Renca-luc tumors in male BALB/c mice. Treatment started when the tumors reached about 1 × 10^6 photons/s peak total flux on BLI. The first cohort examined OXi8007 with cabozantinib. Mice were divided into four groups. Mice were assigned to groups as soon as there were sufficient to add the same numbers of animals to each group. The specific assignment was defined using the random number function in Excel. […] The second cohort was treated with CKIs and OXi8007 using four groups: Group 5 (OXi8007 + anti-PD-1 (10 mg/kg) + anti-CTLA-4 (5 mg/kg); n = 4), Group 6 (saline + anti-PD-1+ anti-CTLA-4; n = 3), Group 7 (saline + anti-PD-1; n = 3), and Group 8 (saline + anti-CTLA-4; n = 4). CKI antibodies were administered thrice weekly (M, W, F) for the first two weeks after the first treatment with OXi8007, which was administered twice weekly. […] Initial tumor growth was confirmed by palpation, and the mice were assigned to groups such that the first mouse with a confirmed tumor was assigned to Group 5, next to Group 6, etc., ensuring that all groups had both faster- and slower-growing tumors. […] Tumor size (BLI signal) and mouse body weights were compared using an ANOVA and multiple comparisons at a significance level of p < 0.05. Kaplan–Meier survival curves were compared using a non-parametric log-rank test using SAS software (SAS Institute Inc., SAS Viya for learners 4, Cary, NC, USA).

Renca cells = experiment: Wound (scratch) assay; type: cell-based, mouse; conditions: ≥ 2.5 µM, over 48 h
Method: Renca cells were plated at a seeding density of approximately 3 × 10^5 cells per well in a 6-well plate and allowed to reach confluency before treatment. A scratch was made with a sterile 10 µL pipette tip in each well before removing the medium and any detached cells. […] Hoechst 33342 was added to each well at a final concentration of 1 µg/mL and incubated for 15 min at 37 °C to stain the cell nuclei. Gen5 version 3.14 software was used for cellular and statistical analysis of the wound closure data.

In the case of `COc1ccc2c(C(=O)c3cc(OC)c(OC)c(OC)c3)c(-c3ccc(OC)c(OP(=O)(O)O)c3)[nH]c2c1` [OXi8007], the “Toxicity in adult mice” value ([1]; 250 mg/kg IP twice weekly up to 7 weeks) is reported as “no overt toxicity”, the “Body weight at week 7 versus baseline” value ([1]; Renca-luc BALB/c mice, 250 mg/kg IP twice weekly) is reported as “significant loss in body weight” and the “Body weight loss versus pre-treatment baseline” value ([1]; Renca-luc BALB/c mice, OXi8007 alone) is reported as ~ 11%. For the same compound, the “Tumor growth delay (BLI)” value ([1]; Renca-luc, versus control) was “no significant growth delay”, the “Overall survival versus control” value ([1]; Renca-luc, 250 mg/kg IP twice weekly, log-rank p = 0.053) was “no overall survival benefit” and the Wound closure (Renca cells) was “significantly depressed”.
